Experimental data published in article PMC3124622 (Biochemical and biophysical research communications, 2011).
“Also recorded” adds a separate entry of the source. Read-outs that look alike come from different tables or passages of the source.

Legend:
[1] = system: TGT from rabbit reticulocytes; details: cited from earlier work
E. coli TGT C145V/T146V = E. coli TGT C145V/T146V (Escherichia coli, UniProt P0A847, C145V/T146V); assay: Pteridine inhibition of guanine incorporation; type: biochemical; details: C145V/T146V mutant; vs guanine; 20 μM tRNA, pH 7.3
[2] = target: E. coli TGT C145V/T146V/P147N/V217G (Escherichia coli, UniProt P0A847, C145V/P147N/T146V/V217G); assay: Pteridine inhibition of guanine incorporation; type: biochemical; details: C145V/T146V/P147N/V217G (quadruple) mutant; vs guanine; 20 μM tRNA, pH 7.3
E. coli TGT Wild-Type = E. coli TGT Wild-Type (Escherichia coli, UniProt P0A847); assay: Pteridine inhibition of guanine incorporation; type: biochemical
[3] = system: Wild-type and Mutant E. coli TGTs; assay: Pteridine inhibition of wild-type and mutant E. coli TGTs; type: biochemical; details: the mutant enzymes
E. coli TGT V217G = E. coli TGT V217G (Escherichia coli, UniProt P0A847, V217G); assay: Pteridine inhibition of guanine incorporation; type: biochemical; details: V217G mutant; vs guanine; 20 μM tRNA, pH 7.3
[4] = target: E. coli TGT C145V/T146V/V217G (Escherichia coli, UniProt P0A847, C145V/T146V/V217G); assay: Pteridine inhibition of guanine incorporation; type: biochemical; details: C145V/T146V/V217G (triple) mutant; vs guanine; 20 μM tRNA, pH 7.3
[5] = target: TGT from mouse fibroblasts; details: cited from earlier work
human TGT [6] = target: T1, human TGT (Homo sapiens, UniProt Q9BXR0); assay: Biopterin inhibition of human TGT; type: biochemical
T1 sequence (Q9BXR0 whole entry): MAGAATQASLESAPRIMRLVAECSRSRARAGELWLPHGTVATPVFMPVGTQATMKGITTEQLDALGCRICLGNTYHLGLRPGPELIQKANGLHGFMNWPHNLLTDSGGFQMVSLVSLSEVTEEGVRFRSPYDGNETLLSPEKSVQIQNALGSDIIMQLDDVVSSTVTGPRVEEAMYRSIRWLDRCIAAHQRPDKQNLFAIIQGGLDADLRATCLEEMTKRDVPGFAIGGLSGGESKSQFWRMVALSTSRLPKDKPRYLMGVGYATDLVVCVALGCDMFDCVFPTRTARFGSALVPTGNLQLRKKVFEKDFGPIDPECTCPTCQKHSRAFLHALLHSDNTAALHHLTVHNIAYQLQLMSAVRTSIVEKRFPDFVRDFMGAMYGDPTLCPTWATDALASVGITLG
T1 sequence (Q9H974 whole entry partner): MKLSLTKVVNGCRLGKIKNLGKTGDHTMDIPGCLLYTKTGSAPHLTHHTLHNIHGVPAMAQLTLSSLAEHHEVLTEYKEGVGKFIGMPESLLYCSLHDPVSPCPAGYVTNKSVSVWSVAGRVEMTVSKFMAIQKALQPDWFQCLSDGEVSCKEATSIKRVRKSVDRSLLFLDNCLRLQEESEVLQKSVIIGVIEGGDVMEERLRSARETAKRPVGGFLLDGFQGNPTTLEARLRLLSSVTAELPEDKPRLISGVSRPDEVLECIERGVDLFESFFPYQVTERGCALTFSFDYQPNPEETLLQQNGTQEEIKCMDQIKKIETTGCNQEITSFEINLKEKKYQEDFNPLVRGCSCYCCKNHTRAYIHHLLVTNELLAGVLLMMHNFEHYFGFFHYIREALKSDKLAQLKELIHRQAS

human TGT [7] = target: T1, human TGT; details: queuine as substrate, ref Chen et al. (2011) Nuc. Acids Res. 39, 2834; cited from earlier work
[8] = system: E. coli TGT (C145V/T146V/V217G); assay: Queuine incorporation by the E. coli TGT triple mutant; type: biochemical; details: queuine concentrations up to 50 μM (data not shown)

Row | Compound | inhibition ([1]; 0.48 μM pterin, rabbit reticulocyte TGT) [%] | Ki (E. coli TGT C145V/T146V) [nM] | Ki [2] [nM] | inhibition (in words) (E. coli TGT Wild-Type; wild-type enzyme) | Ki (E. coli TGT Wild-Type; wild-type enzyme, vs guanine, 20 μM tRNA, pH 7.3) [nM] | inhibition (in words) [3] | Ki (E. coli TGT V217G) [nM] | Ki [4] [nM] | inhibition ([1]; 20 μM biopterin, rabbit reticulocyte enzyme) [%] | Ki [5] [nM] | inhibition of wild-type TGT (E. coli TGT Wild-Type; biopterin concentrations up to 3 mM) | Ki relative to the KM for queuine (human TGT [6]) | mode of inhibition (human TGT [6]; with respect to queuine, Dixon and Cornish-Bowden plots) | Km (human TGT [7]) [µM] | kcat (human TGT [7]) | incorporation of queuine as a substrate [8]
1 | Nc1nc2nccnc2c(=O)[nH]1 [Pterin, pterin] | 44 | 2200 | 37000 | inhibited | 420 | inhibited | 900 | 1300 |  |  |  |  |  |  |  | 
2 | biopterin |  |  |  |  |  | inhibited |  |  | 39 | ~1000 | no detectable inhibition | ca. 30 fold | competitive inhibitor |  |  | 
3 | Nc1nc2[nH]cc(CN[C@H]3C=C[C@H](O)[C@@H]3O)c2c(=O)[nH]1 [Queuine, queuine] |  |  |  |  |  |  |  |  |  |  |  |  |  | 0.26 | 8.2 (±0.2) 10^−3•s^−1 | does not recognize; also recorded: no incorporation
